From patent US6894021B2, “Method for identifying and using A2B adenosine receptor antagonists to mediate mammalian cell proliferation” (CV Therapeutics, Inc., priority 2000, dated 2005)
Entries after “also recorded” stand apart in the source; their conditions may differ.

Legend:
Format in all cases: cell-based
[1] = test system: human retinal endothelial cells (HREC); test: Endothelial cell chemotaxis / chemokinesis in blind-well (Boyden) chambers; details: for Effect on NECA-stimulated HREC migration (chemotaxis): antagonist 10 μmol/L co-added with NECA 10 μmol/L
Protocol: (§1) Primary cultures of HREC were prepared and maintained as previously described and cells in passage 3-6 were used for these studies. […] To maintain purity of HREC, several precautionary steps were taken. […] In addition, cultures of HREC were exposed to trypsin for only 45 sec prior to passage. Endothelial cells float off during this short trypsin treatment while pericytes remain attached to the substrate.
Endothelial cell chemotaxis was measured in blind-well chemotaxis chambers (Neuroprobe, Inc, Bethesda, Md.) as previously described. Briefly a single cell suspension of endothelial cells ([…] cells/well) was prepared and treated with ADA (1 U/mL). Thirty microliters of this suspension was placed in each of 48 lower wells of the blind-well apparatus. The wells were overlaid with a porous (5 μm diameter pore) polyvinyl—and pyrrolidone-free polycarbonate membrane (Nucleopore, Pleasanton, Calif.), coated with 0.1% dermal collagen. The cells were allowed to attach to the membrane by inverting the chamber of 2 h. The chambers were then placed upright and exposed to NECA alone (10 μmol/L), NECA combined with 3-N-propylxanthine (10 μmol/L), JW-V1-08 (10 μmol/L) or the non-selective AdoR antagonist xanthine amine congener (XAC, 10 μmol/L) in a 50 μL volume. After incubation for 12 h, the membrane was recovered and scraped free of cells on the attachment side. The remaining cells, those that had migrated through the pores, were fixed in methanol, is stained with modified Wright's stain and then counter-stained with haematoxylin and eosin. The positive control was 10% fetal bovine serum and the negative control was 1% ablumin. Chemokinesis, the non-oriented increase in cell migration in response to a stimulus, was measured by adding equal concentration of NECA or NECA plus one of the antagonists to both lower and upper chambers. Treatment conditions were examined in triplicate in three separate experiments.

[2] = test system: human retinal endothelial cells (HREC); test: HREC proliferation assay (cell counting, Coulter Counter); details: for Effect on NECA-induced HREC proliferation: antagonist 10 μmol/L with NECA 10 μmol/L, FIG. 1A
Protocol: as §1
HREC were seeded at 10 cells/cm in 24 well plates and allowed to adhere overnight. Cells were washed in Hank's balanced salt solution and the medium was replaced with serum—and growth supplement-free medium (SFM) for 24 hr to induce cell-cycle arrest. Cells were washed again and pre-treated with 1 U/mL adenosine deaminase (ADA) for 30 min. […] Controls were HREC exposed to SFM or normal growth medium. For the next three days at 24-hour intervals replicate wells were treated with trypsin and the cells were collected and counted using a Coulter Counter. Each condition was examined in triplicate in three separate experiments using cells from different donors for each experiment.

[3] = test system: human retinal endothelial cells (HREC); test: Matrigel assay of endothelial tube formation; details: 48 h; for Effect on NECA-induced tube formation on Matrigel (photomicrographs): antagonist 10 μmol/L with NECA 10 μmol/L, FIG. 2C, 2D; for Total tube length in the presence of NECA: antagonist added to NECA, NECA alone 74.2±2.4
Protocol: as §1
Endothelial tube formation was assessed on Matrigel. Briefly, Matrigel was thawed and kept at 4° C. Multi-well plates and pipette tips were chilled to −20° C. and Matrigel (125 μL) was added to each well of a 48-well plate and allowed to harden for a minimum of 1 h at 37° C. HREC were dissociated enzymatically (2 min at 37° C. in 0.25% Trypsin-EDTA), centrifuged (300×g, 5 min) and re-suspended in serum-free media. Test agents (100 μL) were prepared at 2× final concentration and 100 μL were added to wells. HREC (3×10 in 100 μL per well) were then added and plates were incubated at 37° C. Wells were photographed 48 h after plating. Identical fields in each well were photographed to minimize the possible variation due to variable cell density caused by the settling of cells. […] All conditions were tested in duplicate wells in three separate experiments using cells from different donors.

SMILES | Effect on NECA-stimulated HREC migration (chemotaxis) ([1]; 12 h, FIG. 1B) | Effect on NECA-induced HREC proliferation [2] | Effect on NECA-induced tube formation on Matrigel (photomicrographs) [3] | Total tube length in the presence of NECA ([3]; p<0.01) | HREC proliferation by cell counts, as density relative to cells exposed to normal growth medium ([2]; NECA 10 μmol/L, 3 days, ADA-pretreated serum-starved HREC) | HREC chemotaxis / migration ([1]; NECA alone versus unstimulated cells, 12 h, FIG. 1B) | Chemokinesis (non-oriented increase in cell migration) ([1]; equal concentration in lower and upper chambers) | Endothelial cell tube formation on Matrigel (photomicrographs) ([3]; NECA 10 μmol/L alone, FIG. 2B) | Increase of tube length over untreated cells ([3]; NECA alone) | Total tube length ([3]; NECA alone, untreated cells 35.7±1.6, p<0.01)
CCCn1c(=O)c2[nH]c(-c3ccc(OCC(=O)NCCN)cc3)nc2n(CCC)c1=O [XAC, xanthine amine congener] | abolished NECA-stimulated migration of HREC | – | – | – | – | – | – | – | – | –
CCCn1c(=O)[nH]c(=O)c2[nH]cnc21 [3-N-propylxanthine] | antagonized the stimulatory effect of NECA on chemotaxis | completely blocked; also recorded: completely block the proliferative effect of NECA | diminished NECA-induced tube formation; also recorded: inhibited tube formation, resulting in fewer tubes of shorter length | 53.7±0.9 pixel | – | – | – | – | – | –
CCNC(=O)[C@H]1O[C@@H](n2cnc3c(N)ncnc32)[C@H](O)[C@@H]1O [NECA, 5′-N-ethylcarboxamido-adenosine] | – | – | – | – | about 80% | concentration-dependent increase in HREC migration; also recorded: increased migration in a concentration-dependent manner | Neither NECA alone nor NECA in combination with the AdoR antagonists induced chemokinesis | supported extensive tube formation | more than 2 fold | 74.2±2.4 pixel
CC(C)Cn1c(=O)[nH]c(=O)c2[nH]c(N3CCCC3)nc21 [JW-V1-08, 3-isobutyl-8-pyrrolidinoxanthine] | antagonized the stimulatory effect of NECA on chemotaxis | completely blocked; also recorded: completely block the proliferative effect of NECA | diminished NECA-induced tube formation; also recorded: inhibited | 66±1.2 pixel | – | – | – | – | – | –
